What follows are molecules tested against T1, human EGF-R (Homo sapiens, UniProt P00533) (assay: Inhibition of EGFR-dependent proliferation (EGF-stimulated murine haematopoietic cell line expressing human EGF-R)). Conditions: 20 ng/ml human EGF, 48 hours at 37° C., Cell Titer 96 AQueous assay.
T1 construct: expressed in transfected cells
Assay type: cell-based
Description: A murine haematopoietic cell line is genetically modified so as to express functional human EGF-R. The proliferation of this cell line can therefore be stimulated by EGF.
The test is carried out as follows:
The cells are cultivated in RPMI/1640 medium. The proliferation is stimulated with 20 ng/ml of human EGF (Promega). To investigate the inhibitory activity of the compounds according to the invention these compounds are dissolved in 100% dimethylsulphoxide (DMSO) and added to the cultures in various dilutions, the maximum DMSO concentration being 1%. The cultures are incubated for 48 hours at 37° C.
In order to determine the inhibitory activity of the compounds according to the invention the relative cell number is measured in O.D. Units using the Cell Titer 96™ AQueous Non-Radioactive Cell Proliferation Assay (Promega). The relative cell number is calculated as a percentage of the control and the concentration of active substance which inhibits the proliferation of the cells by 50% (IC50) is derived therefrom.

T1 sequence (P00533 25-1210): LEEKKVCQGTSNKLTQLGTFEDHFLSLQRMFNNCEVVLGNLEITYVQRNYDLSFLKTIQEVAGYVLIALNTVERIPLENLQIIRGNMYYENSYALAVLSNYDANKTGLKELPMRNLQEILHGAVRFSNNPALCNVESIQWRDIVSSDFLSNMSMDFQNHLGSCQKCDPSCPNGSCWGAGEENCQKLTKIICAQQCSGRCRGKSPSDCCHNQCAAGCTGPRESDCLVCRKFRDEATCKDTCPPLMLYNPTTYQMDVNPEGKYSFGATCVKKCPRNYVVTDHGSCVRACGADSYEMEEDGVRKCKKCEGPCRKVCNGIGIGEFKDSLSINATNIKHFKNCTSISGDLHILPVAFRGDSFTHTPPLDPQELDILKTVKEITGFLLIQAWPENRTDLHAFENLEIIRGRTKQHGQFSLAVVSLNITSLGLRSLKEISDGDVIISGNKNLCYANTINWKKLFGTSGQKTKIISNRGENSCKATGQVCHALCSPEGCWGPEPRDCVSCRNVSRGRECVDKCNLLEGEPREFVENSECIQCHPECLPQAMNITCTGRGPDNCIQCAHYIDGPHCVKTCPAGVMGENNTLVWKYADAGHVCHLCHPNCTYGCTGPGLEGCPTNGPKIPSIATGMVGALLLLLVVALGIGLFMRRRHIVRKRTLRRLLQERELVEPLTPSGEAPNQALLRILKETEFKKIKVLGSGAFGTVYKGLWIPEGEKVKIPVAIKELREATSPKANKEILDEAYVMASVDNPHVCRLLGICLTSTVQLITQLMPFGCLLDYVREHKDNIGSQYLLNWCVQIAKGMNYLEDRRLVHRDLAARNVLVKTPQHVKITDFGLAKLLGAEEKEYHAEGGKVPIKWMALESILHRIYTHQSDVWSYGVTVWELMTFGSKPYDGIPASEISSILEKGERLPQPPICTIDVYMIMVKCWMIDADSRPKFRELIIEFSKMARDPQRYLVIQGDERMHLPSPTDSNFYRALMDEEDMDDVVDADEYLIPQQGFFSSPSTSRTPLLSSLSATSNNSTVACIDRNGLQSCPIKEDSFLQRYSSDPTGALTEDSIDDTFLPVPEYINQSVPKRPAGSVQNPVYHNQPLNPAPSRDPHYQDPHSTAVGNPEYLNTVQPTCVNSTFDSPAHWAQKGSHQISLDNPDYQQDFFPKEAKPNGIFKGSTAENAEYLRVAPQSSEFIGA

| IC50 [nM] | Compound |
| --- | --- |
| 2 | COc1cc2ncnc(Nc3cccc(Cl)c3F)c2cc1O[C@H]1CC[C@]2(CC1)C(=O)N(C)CCN2C [2(1), anti-9-[4-(3-chloro-2-fluoro-phenylamino)-7-methoxy-quinazolin-6-yloxy]-1,4-dimethyl-1,4-diaza-spiro[5.5]undecan-5-one] |
| 2 | COc1cc2ncnc(Nc3cccc(Cl)c3F)c2cc1O[C@H]1CC[C@]2(CC1)NCCNC2=O [1(2), syn-9-[4-(3-chloro-2-fluoro-phenylamino)-7-methoxy-quinazolin-6-yloxy]-1,4-diaza-spiro[5.5]undecan-5-one] |
| 1 | COc1cc2ncnc(Nc3cccc(Cl)c3F)c2cc1O[C@H]1CC[C@]2(CC1)C(=O)NCCN2C [Example 2, anti-9-[4-(3-chloro-2-fluoro-phenylamino)-7-methoxy-quinazolin-6-yloxy]-1-methyl-1,4-diaza-spiro[5.5]undecan-5-one] |
| 2 | COc1cc2ncnc(Nc3cccc(Cl)c3F)c2cc1O[C@H]1CC[C@@]2(CC1)NCCN(C)C2=O [1(1), anti-9-[4-(3-chloro-2-fluoro-phenylamino)-7-methoxy-quinazolin-6-yloxy]-4-methyl-1,4-diaza-spiro[5.5]undecan-5-one] |

| Compound | IC50 [nM] |
| --- | --- |
| COc1cc2ncnc(Nc3cccc(Cl)c3F)c2cc1O[C@H]1CC[C@@]2(CC1)NCCNC2=O [Example 1, anti-9-[4-(3-chloro-2-fluoro-phenylamino)-7-methoxy-quinazolin-6-yloxy]-1,4-diaza-spiro[5.5]undecan-5-one] | 4 |
